Test results: PMC6934184, “Selective DNA-PKcs inhibition extends the therapeutic index of localized radiotherapy and chemotherapy” (The Journal of Clinical Investigation, 2019)

Target: T1, PIK3C3 (hVPS34) (Homo sapiens, UniProt Q8NEB9)
T1 construct: purchased Thermo Fisher Scientific (Life Technologies) SelectScreen
Experiment: SelectScreen Adapta
Assay type: biochemical
Settings: ATP Km app
Method in brief: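 NU5455 was profiled across the SelectScreen Broad panel of kinase activity and binding assays. Z'LYTE reactions such as CSF1R ran at apparent Km ATP, while the Adapta CAMK1 assay used ATP listed as 10. Values are given as percent.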

T1 sequence (Q8NEB9 whole entry): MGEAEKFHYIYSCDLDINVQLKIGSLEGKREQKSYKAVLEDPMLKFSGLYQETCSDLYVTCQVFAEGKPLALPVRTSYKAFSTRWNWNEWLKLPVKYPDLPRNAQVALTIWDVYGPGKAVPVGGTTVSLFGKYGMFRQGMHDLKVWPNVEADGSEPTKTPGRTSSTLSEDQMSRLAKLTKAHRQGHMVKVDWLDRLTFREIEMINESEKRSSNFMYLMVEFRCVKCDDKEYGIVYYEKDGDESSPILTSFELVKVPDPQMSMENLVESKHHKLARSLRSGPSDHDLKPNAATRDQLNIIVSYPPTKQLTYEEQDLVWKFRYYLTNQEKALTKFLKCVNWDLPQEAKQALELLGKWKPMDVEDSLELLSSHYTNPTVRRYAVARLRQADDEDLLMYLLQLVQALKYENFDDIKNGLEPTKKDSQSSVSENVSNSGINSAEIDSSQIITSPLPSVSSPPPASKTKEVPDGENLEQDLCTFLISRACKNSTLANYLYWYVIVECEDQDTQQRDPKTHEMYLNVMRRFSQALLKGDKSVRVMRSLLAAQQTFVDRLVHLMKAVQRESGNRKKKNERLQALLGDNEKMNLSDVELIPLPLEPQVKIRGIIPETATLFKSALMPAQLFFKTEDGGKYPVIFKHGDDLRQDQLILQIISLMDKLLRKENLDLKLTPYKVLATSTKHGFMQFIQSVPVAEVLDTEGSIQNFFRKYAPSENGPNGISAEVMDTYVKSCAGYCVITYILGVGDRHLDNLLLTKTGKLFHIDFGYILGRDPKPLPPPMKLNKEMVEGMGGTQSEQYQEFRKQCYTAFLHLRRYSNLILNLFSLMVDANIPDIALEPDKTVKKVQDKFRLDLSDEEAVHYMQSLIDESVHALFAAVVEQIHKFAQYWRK

**Q.** For `CN(C(=O)CN1CCOCC1)c1ccc2sc3c(-c4cccc5c(=O)cc(N6CC7CCC(C6)O7)oc45)cccc3c2c1` [NU5455], which “% inhibition” value (1 µM) is on record?
**A.** 86%

**Q.** And the inhibition at 1 µM?
**A.** 85.9%
